# Assay results: US4882420A, “Dihalo-statine substituted renin inhibitors” (The Upjohn Company, priority 1986, dated 1989)
# Target: T1, renin (plasma renin activity of human plasma) (Homo sapiens, UniProt P00797)
# T1 construct: Lyophilized human plasma with 0.1% EDTA is obtained from New England Nuclear; tissue New England Nuclear Plasma Renin Activity Control; host or cells: human plasma (lyophilized, reconstituted)
# T1 sequence (P00797 67-406): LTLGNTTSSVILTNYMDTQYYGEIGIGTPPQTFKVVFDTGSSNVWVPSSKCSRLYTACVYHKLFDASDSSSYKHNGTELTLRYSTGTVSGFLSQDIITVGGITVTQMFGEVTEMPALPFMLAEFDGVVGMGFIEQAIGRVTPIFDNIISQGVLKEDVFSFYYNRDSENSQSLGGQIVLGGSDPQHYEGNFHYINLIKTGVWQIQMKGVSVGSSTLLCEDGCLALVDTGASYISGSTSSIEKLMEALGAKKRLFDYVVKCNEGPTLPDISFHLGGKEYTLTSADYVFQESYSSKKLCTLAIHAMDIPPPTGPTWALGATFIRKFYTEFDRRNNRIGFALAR
# Assay: GAMMACOAT plasma renin activity (PRA) radioimmunoassay, inhibition of angiotensin I generation in reconstituted human plasma
# Format: biochemical
# Settings: for potency estimated from few doses: reconstituted lyophilized human plasma, 90 minutes at 37° C., estimated by plotting two inhibitor concentrations, read-out: IC50 (I50, concentration producing 50% inhibition of plasma renin activity)
# Method: Lyophilized human plasma with 0.1% EDTA is obtained from New England Nuclear, North Billerica, Mass. 01862 as "Plasma Renin Activity Control". This lyophilized plasma is reconstituted, on the day of the assay, with cold sterile distilled water according to directions on the vial. The plasma renin activity (PRA) of the reconstituted plasma is assayed with "GAMMACOAT [^125 I] Plasma Renin Activity Radioimmunoassay Kit" supplied by Clinical Assays, a Division of Travenol Laboratories, Inc., Cambridge, Mass. 02139. The procedure used with these kits is carried out essentially as described in the literature which accompanies them. The initial (enzymatic generation of Angiotensin 1) step is modified slightly to accommodate the testing of renin inhibitors and to minimize the amount of plasma required to perform the assay. Thus, for every milliliter of reconstituted plasma used in the assay, there is added and vortexed 10 μl of PMSF (0.3M phenylmethylsulfonyl fluoride in ethanol) and 100 μl of maleate generation buffer, both provided in the kit. 250 μl of this mixture is then transferred to each tube used in the generation step along with 10 μl of the potential renin inhibitor suspended or dissolved in 1% Tween 80 in water. […]
# In the case of renin inhibitory peptide (RIP), 100 μl of the 4° C. blank is added to a GAMMACOAT tube. […] The tubes are then counted in a gamma counter. The results of the RIP are evaluated with the Rodbard Radioimmunoassay Program and the plasma renin activity (PRA) is expressed as […]. […] In addition to I50 values, relative potencies are also calculated. A relative potency is determined by comparing the I50 of RIP to the I50 of the compound. However, it must be emphasized that relative potencies are calculated from the I50 obtained for RIP on the day the compound is assayed and not from the average I50 for RIP.
# It has been determined that the GAMMACOAT-PRA assay is a suitable replacement for the RENAK assay (supplied by Hoffman-LaRoche and previously known as a diagnostic test for high renin states) to determine the activity of potential renin inhibitors.
potency estimated from few doses,relative potency (I50 of RIP compared to I50 of the compound) (relative to RIP (H-Pro-His-Pro-Phe-His-Phe-Phe-Val-Tyr-Lys-OH) assayed on the same day),SMILES
1.4 nM,,"CC[C@H](C)[C@H](NC(=O)C(F)(F)C(=O)C(CC(C)C)NC(=O)[C@H](Cc1c[nH]cn1)NC(=O)[C@H](Cc1ccccc1)NC(=O)OC(C)(C)C)C(=O)NCc1ccccn1 (stereo partly drawn) [N-tert-butyloxycarbonyl-L-phenylalanyl-L-histidyl-4-amino-2,2-difluoro-4-(2-methylpropyl)-1,3-dioxobutyl-L-isoleucyl-2-pyridylmethylamide]"
12 nM,"1,000","CC[C@H](C)[C@H](NC(=O)C(F)(F)[C@H](O)[C@H](CC(C)C)NC(=O)[C@H](Cc1c[nH]cn1)NC(=O)[C@H](Cc1ccccc1)NC(=O)OC(C)(C)C)C(=O)NCc1ccccn1 [N-tert-butyloxycarbonyl-L-phenylalanyl-L-histidyl-4S-amino-2,2-difluoro-3R-hydroxy-4-(2-methylpropyl)-1-oxobutyl-L-isoleucyl-2-pyridylmethylamide]"
